# Measured values reported in patent publication US8481016B2, “Method for inhibition of potential-dependent cation channel” (Kao Corporation, priority 2010, dated 2013).
# System: potential-dependent cation channel of isolated olfactory cells
# Test: Test for measuring potential-dependent cation channel activity (whole-cell recording, inward current on depolarization)
# Type: cell-based, Japanese fire belly newt (Cynops pyrrhogaster)
# Conditions: Reference Example; concentration not given
# Procedure: 1. Isolation of Olfactory Cells
# To briefly explain the method of isolation, each newt which had been hibernated in ice-water was double-pithed, and the cranium was cut open to remove olfactory mucosa. The removed olfactory mucosa was incubated in a 0.1% collagenase solution at 37° C. for 5 minutes, and collagenase was washed off. Subsequently, the mucosal tissue was crushed by means of a glass pipette to thereby isolate cells. As the normal Ringer's solution, a solution of 110 mM NaCl, 3.7 mM KCl, 3 mM CaCl2, 1 mM MgCl2, 15 mM glucose, 1 mM sodium pyruvate, 10 mM HEPES, and 0.001% (w/v) Phenol Red, at pH 7.4 (adjusted with NaOH), was used.
# 2. Measurement of Electrical Activity [A. Setting] […] A borosilicate glass capillary (diameter: 1.2 mm) was used as the electrode, and the electrode was produced using a puller for electrode fabrication (P-97, Sutter Instrument Co.) (electrode resistance: approximately 6.0 MΩ). An electrode filling solution and a silver-silver chloride wire were inserted into the electrode, the silver-silver chloride wire was connected to a patch clamp amplifier (EPC10, HEKA), and thus fixation of the membrane potential and depolarization simulation were performed. […] The recording of the membrane current was performed using a computer (IBM-compatible) connected to the patch clamp amplifier (sampling frequency: 1 kHz), and Patch Master software (HEKA) was used for the measurement and analysis. The addition (spraying) of a test substance was carried out using a pressure controller.
# [B. Procedure] In order to investigate the effect of each of the test substances described above (see Table 1) on the potential-dependent cation channel activity, the membrane potential of the isolated olfactory cells was fixed at −90 mV, and the membrane potential was depolarized to −20 mV for 20 milliseconds at an interval of 200 milliseconds. The peak intensity of the inward current produced immediately after depolarization (FIG. 1. |a|=[Inward current value produced immediately after depolarization]−[baseline value]) was measured. While depolarization stimulation was continuously repeated, the test substance was adjusted to the various concentrations indicated in Table 1 using normal Ringer's solution, and the mixture was added to the olfactory cells by spraying the mixture (for 650 milliseconds, pressure: 100 kPa) through a glass pipette (tip diameter: 1 μm) that was placed such that the tip of the pipette was located in the vicinity (10 μm) of the olfactory cells . The change in the inward current (FIG. 1, |b|=[Inward current value when the peak intensity was most suppressed]−[baseline value]) resulting from the spraying was investigated. This spraying was carried out continuous for 5 times. Furthermore, the average value A of the peak intensities (a) of the inward current produced by the depolarization immediately before the addition of an extract, and the average value B of the peak intensities (b) of the inward current produced by the depolarization immediately after the addition of an extract were calculated.
# The CNG channel current can be easily distinguished from the potential-dependent channel current, in terms of the intensity, peak shape, duration and the like.
# The “inward current suppression ratio (%)” was calculated from the “B: average value of the inward current value (b) when the peak intensity was most suppressed” and the “A: average value of the inward current value (a) produced immediately after the depolarization immediately before the addition of an extract,” as shown in the following formula.
row,SMILES,Channel suppression ratio (inward current suppression ratio) [%]
1,"CC12CCC(CC1)C(C)(C)O2 [1,8-Cineol]",46.5
2,CCC(O)COC1CCCCC1C(C)(C)C (centres unmarked) [AMBER CORE],27.1
3,COc1ccc(C=O)cc1 [ANIS ALDEHYDE],89.3
4,O=C(OCc1ccccc1)c1ccccc1 [BENTHYL BENZOATE],10.7
5,O=Cc1ccccc1 [BENZALDEHYDE],95.4
6,CC(C)=CCCC(C)=CC=O [CIT RAL],110.6
7,C=CC(C)CCCC(C)(C)O (centres unmarked) [DIHYDRO MYRCENOL],109.0
8,CCOC(=O)C12CCCC1C1CCC2C1 (centres unmarked) [FRUIT ATE],11.6
9,CC(C)=CCC/C(C)=C/CO [GERANIOL],90.1
10,CC(C=O)Cc1ccc(C(C)(C)C)cc1 (centres unmarked) [LILIAL],57.9
11,C=CC(C)(CCC=C(C)C)OC(C)=O (centres unmarked) [LINALYL ACETATE],43.3
12,CC(C)(O)CCCC1=CCC(C=O)CC1 (centres unmarked) [LYRAL],35.7
13,C=CC(C)(O)CCC=C(C)C (centres unmarked) [Linalool],106.5
14,OCCc1ccccc1 [PHENYL ETHYL ALCOHOL],82.6
15,CCOC(=O)C(C)C1CCCCC1 (centres unmarked) [POIRENATE],48.7
16,CC1=CC(C)C(C=O)CC1 (centres unmarked) [TRIPLAL],79.9
17,CC=CC(=O)C1=C(C)CCCC1(C)C [b-DAMASCONE],56.1
18,CC/C=C\CCO [cis-3-HEXENOL],78.7
19,CC(=O)OCCC(C)C [iso-AMYL ACETATE],92.0
20,CC(=O)OC1CCCCC1C(C)(C)C (centres unmarked) [o-t-B.C.H.A],23.8

# Same assay, conditions: evaluation concentration 0.01%; depolarization -90 mV to -20 mV; newt olfactory cells
row,SMILES,Inhibition ratio (%) (inward current suppression ratio)
1,"CC12CC3CC(C1)CC(C)(C3)C2 [Comparative Example 2, 1,3-Dimethyladamantane]",0
2,"CC12CC3CC(C)(C1)CC(CO)(C3)C2 [Example 5, 3,5-Dimethyladamantane-1-methanol]",59.9
3,"NCC12CC3CC(CC(C3)C1)C2 [Example 6, 1-Adamantane methylamine]",54.5
4,"CC(=O)C12CC3CC(CC(C3)C1)C2 [Example 7, 1-Adamantylmethyl ketone]",32
5,"CCOC(=O)CC(=O)C12CC3CC(CC(C3)C1)C2 [Example 9, Ethyl-3-(1-adamantyl)-3-oxopropionate]",45.5
6,"CC(=O)NC12CC3CC(CC(C3)C1)C2 [Example 10, 1-Acetamidoadamantane]",40.6
7,CC(N)C12CC3CC(CC(C3)C1)C2.Cl (centres unmarked) [Example 11],78.9

# Same assay, conditions: evaluation concentration 0.04%; depolarization -90 mV to -20 mV; newt olfactory cells
row,SMILES,Inhibition ratio (%) (inward current suppression ratio)
1,"C1C2CC3CC1CC(C2)C3 [Comparative Example 1, Adamantane]",10.9
2,"OC12CC3CC(CC(C3)C1)C2 [Example 1, 1-Adamantanol]",72.4
3,"OCCC12CC3CC(CC(C3)C1)C2 [Example 2, 1-Adamantane ethanol]",63.4
4,"O=C(O)CC12CC3CC(CC(C3)C1)C2 [Example 8, 1-Adamantane acetic acid]",82.5

# System: not listed separately
# Test: Sensory evaluation olfaction masking test, isovaleric acid as malodorous substance
# Type: in vivo
# Conditions: 20 panelists; isovaleric acid 1%, 2 μL; test solution 0.1%, 4 μL; six-grade score 0 (masking not achieved) to 5 (perfect masking)
# Procedure: [Sensory evaluation test]
# An olfaction masking test based on sensory evaluation was carried out with 20 panelists.
# 2 μL of the malodorous substance and 4 μL of a test solution of each of the test compounds indicated in Table 3 at a concentration of 0.1% were impregnated into separate cotton balls (diameter: 1 cm), and the substances were volatilized for 12 hours at room temperature in each of separate 50-mL injection syringes. The isovaleric acid and test compound volatilized in the syringe were injected into a PP container (capacity: 500 mL) with a cap and were mixed in the container.
# The evaluation was carried out such that each panelist slightly opened the cap of the PP container and smelled the odor in the container, and the panelist determined the masking strength for the odor of isovaleric acid.
# The evaluation of the masking strength was carried out based on the following six-grade masking scores, based on a comparison with the intensity of odor in a PP container to which only volatilized isovaleric acid had been injected.
# 0: Masking is not achieved.
# 1: A very slight masking effect is recognized.
# 2: A slight masking effect is recognized.
# 4: Masking is almost achieved.
# 5: Perfect masking is achieved.
row,SMILES,Masking score
1,CC=CC(=O)C1=C(C)CCCC1(C)C [b-DAMASCONE],2.4

# System: not listed separately
# Test: Olfaction masking test by sensory evaluation, hexanoic acid as malodorous substance
# Type: in vivo, human beings
# Conditions: 10 panelists, hexanoic acid 10%, 20 μL, test solution 25%, same cotton ball
# Procedure: An olfaction masking test based on sensory evaluation was carried out with 10 panelists. […] The cotton ball was placed in a 50-mL container, and the malodorous substance was volatilized overnight at room temperature.
# The evaluation was carried out such that each panelist smelled the odor in the container, and determined the strength of masking of hexanoic acid by the addition of the adamantane derivatives. The intensity of odor of simple hexanoic acid was set to 5.0, which is an intermediate point among the 21 grades of evaluation criteria (0: no odor, 10: strong odor).
row,SMILES,Hexanoic acid odor intensity suppression ratio (%)
1,"O=C(O)CC12CC3CC(CC(C3)C1)C2 [Example 8, 1-Adamantane acetic acid]",32

# Same assay, conditions: 10 panelists, hexanoic acid 10%, 20 μL, test solution 50%, same cotton ball
row,SMILES,Hexanoic acid odor intensity suppression ratio (%)
1,"CC12CC3CC(C)(C1)CC(CO)(C3)C2 [Example 5, 3,5-Dimethyladamantane-1-methanol]",28
2,"NCC12CC3CC(CC(C3)C1)C2 [Example 6, 1-Adamantane methylamine]",78
